Measurements from patent publication US9340590B2 (priority 2011, dated 2016).
Where two headings read alike, the source gives them in different places. Positions of bridges follow the written chain, without caps; N, C: chain ends. Residues, ends and D or L forms follow the SMILES beside them.

Experiments:
Test in all cases: cell-based
hNav1.3 = hNav1.3 (Homo sapiens, UniProt Q9NY46)
hNav1.5 = hNav1.5 (Homo sapiens, UniProt Q14524)
hNav1.7 = hNav1.7 (Homo sapiens, UniProt Q15858); assay type: cell-based
[1] = IonWorks Quattro, clamped to −110 mV, depolarized to −10 mV, 5 min after compound, n=2, read-out: IWQ Use Nav1.3
[2] = IonWorks Quattro, clamped to −110 mV, depolarized to −10 mV, 5 min after compound, n=2, read-out: IWQ Use Nav1.5
[3] = IonWorks Quattro, clamped to −110 mV, depolarized to −10 mV, 5 min after compound, n=2, read-out: IWQ Use Nav1.7

hNav1.5, sequence (Q14524 whole entry, looked up): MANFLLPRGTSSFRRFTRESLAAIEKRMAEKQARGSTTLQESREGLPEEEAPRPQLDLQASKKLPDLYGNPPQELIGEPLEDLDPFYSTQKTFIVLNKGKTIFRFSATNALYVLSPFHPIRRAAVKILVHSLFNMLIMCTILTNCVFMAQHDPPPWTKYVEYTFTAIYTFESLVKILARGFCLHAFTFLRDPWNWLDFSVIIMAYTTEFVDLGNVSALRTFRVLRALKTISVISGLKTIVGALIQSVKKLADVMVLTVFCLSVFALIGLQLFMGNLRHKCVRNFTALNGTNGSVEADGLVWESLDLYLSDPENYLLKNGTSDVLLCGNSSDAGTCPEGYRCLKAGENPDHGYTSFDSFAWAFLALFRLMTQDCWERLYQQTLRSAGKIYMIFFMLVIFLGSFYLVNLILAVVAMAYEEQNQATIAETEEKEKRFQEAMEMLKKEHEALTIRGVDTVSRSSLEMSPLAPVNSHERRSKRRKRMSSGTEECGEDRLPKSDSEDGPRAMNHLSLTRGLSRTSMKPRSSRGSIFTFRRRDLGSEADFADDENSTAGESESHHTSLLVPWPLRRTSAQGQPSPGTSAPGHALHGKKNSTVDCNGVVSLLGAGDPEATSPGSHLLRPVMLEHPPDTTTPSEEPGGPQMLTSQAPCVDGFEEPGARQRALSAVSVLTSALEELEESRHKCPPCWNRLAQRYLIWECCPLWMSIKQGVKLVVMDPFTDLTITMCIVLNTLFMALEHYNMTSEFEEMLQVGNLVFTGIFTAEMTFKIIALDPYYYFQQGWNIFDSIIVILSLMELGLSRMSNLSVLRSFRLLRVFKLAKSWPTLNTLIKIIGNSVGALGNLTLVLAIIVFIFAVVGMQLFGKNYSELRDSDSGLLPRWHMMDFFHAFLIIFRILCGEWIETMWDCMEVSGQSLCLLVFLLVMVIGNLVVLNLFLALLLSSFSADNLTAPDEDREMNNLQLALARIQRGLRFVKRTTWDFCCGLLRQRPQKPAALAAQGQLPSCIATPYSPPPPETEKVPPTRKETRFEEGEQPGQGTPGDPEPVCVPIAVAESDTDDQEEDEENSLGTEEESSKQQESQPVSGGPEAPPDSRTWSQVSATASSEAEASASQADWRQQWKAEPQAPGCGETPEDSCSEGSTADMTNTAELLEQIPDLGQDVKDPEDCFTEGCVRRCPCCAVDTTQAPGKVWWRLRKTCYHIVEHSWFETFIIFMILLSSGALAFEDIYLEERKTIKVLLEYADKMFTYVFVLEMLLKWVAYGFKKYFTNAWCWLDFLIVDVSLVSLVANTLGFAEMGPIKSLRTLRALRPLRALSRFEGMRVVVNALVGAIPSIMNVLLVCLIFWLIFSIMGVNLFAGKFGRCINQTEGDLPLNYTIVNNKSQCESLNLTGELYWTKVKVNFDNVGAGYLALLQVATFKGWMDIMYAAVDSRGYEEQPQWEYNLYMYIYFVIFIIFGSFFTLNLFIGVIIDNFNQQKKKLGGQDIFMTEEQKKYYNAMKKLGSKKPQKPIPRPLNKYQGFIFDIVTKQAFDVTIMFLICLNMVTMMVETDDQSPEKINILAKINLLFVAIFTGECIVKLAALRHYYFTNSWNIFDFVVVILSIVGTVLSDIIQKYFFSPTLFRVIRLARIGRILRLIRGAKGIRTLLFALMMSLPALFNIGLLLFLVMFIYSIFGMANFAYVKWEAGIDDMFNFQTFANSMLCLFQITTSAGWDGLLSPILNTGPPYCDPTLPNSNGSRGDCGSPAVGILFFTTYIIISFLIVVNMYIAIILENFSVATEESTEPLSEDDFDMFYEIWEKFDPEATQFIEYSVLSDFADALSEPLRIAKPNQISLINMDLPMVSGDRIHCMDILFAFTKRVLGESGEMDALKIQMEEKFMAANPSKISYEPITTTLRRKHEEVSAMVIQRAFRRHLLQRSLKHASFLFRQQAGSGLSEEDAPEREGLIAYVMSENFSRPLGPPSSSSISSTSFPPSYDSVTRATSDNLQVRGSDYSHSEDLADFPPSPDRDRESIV
hNav1.3, sequence (Q9NY46 whole entry, looked up): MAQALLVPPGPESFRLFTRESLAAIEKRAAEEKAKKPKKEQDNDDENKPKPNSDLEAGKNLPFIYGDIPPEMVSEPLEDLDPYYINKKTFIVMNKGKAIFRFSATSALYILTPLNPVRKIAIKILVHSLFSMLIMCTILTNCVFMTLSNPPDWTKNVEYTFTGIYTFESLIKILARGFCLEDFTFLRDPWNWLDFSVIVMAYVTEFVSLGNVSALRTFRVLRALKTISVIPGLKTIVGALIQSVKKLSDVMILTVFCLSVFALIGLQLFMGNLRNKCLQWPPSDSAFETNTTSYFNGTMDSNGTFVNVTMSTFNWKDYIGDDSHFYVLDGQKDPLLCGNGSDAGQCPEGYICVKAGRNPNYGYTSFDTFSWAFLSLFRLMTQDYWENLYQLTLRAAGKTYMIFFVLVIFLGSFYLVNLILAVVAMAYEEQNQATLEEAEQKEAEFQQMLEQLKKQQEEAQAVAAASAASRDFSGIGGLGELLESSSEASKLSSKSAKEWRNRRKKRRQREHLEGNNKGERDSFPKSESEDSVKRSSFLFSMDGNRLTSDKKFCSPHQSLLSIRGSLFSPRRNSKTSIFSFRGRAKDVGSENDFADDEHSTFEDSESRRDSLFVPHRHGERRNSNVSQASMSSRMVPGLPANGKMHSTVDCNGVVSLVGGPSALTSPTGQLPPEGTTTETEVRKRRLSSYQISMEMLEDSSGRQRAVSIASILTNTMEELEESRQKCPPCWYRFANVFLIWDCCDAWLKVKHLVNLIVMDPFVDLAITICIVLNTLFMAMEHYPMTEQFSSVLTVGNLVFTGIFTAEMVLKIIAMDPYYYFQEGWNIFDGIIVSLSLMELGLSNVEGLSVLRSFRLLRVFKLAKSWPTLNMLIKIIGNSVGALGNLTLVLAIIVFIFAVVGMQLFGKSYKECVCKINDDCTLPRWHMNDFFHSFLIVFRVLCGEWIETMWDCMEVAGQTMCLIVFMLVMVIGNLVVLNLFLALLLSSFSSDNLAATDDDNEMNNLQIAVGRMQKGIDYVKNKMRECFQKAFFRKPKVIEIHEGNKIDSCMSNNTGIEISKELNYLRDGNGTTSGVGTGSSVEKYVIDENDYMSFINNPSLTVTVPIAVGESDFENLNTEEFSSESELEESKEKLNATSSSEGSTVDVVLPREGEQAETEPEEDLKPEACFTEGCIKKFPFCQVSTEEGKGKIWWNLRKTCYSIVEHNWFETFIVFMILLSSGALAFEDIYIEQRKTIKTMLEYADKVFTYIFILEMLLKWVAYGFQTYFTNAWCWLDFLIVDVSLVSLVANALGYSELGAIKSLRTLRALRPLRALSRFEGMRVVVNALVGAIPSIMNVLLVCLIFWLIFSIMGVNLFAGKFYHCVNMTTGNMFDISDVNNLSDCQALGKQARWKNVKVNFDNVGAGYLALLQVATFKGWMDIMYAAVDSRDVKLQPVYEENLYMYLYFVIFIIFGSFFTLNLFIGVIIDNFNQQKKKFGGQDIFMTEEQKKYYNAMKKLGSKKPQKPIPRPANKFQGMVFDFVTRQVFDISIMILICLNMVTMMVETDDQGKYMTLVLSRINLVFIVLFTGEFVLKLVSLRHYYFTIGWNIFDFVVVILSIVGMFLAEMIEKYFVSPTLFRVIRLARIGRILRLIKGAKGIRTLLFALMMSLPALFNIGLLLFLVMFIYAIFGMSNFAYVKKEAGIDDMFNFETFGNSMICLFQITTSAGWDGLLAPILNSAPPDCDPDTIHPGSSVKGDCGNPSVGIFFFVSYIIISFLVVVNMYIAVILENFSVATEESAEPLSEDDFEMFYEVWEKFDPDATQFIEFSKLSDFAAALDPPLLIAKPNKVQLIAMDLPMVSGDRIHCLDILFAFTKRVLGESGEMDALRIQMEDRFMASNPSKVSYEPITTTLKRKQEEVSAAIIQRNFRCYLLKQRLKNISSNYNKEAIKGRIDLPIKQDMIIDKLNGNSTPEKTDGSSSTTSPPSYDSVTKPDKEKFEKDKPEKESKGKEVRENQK

SMILES	IC50 (hNav1.3; [1]) [nM]	IC50 (hNav1.5; [2]) [µM]	IC50 (hNav1.7; [3]) [nM]	IC50 (hNav1.3) [nM]	IC50 (hNav1.5; IWQ Use Nav1.5 (μM)) [µM]	IC50 (hNav1.7) [nM]
CC[C@H](C)[C@H](N)C(=O)N[C@H]1CSSC[C@@H]2NC(=O)[C@@H]3CSSC[C@@H](C(=O)N[C@@H](CCCCN)C(=O)N[C@@H](Cc4ccc(O)cc4)C(=O)N[C@H](C(=O)N[C@@H](Cc4ccccc4)C(N)=O)C(C)C)NC(=O)[C@H](Cc4c[nH]c5ccccc45)NC(=O)[C@H](CCCCN)NC(=O)[C@H](Cc4c[nH]cn4)NC(=O)[C@H]([C@@H](C)O)NC(=O)[C@H](CCCNC(=N)N)NC(=O)[C@H](CO)NC(=O)[C@H](CSSC[C@H](NC(=O)[C@H](CCCCN)NC(=O)[C@H](CCCNC(=N)N)NC(=O)[C@H](CCSC)NC(=O)[C@H](Cc4ccccc4)NC(=O)CNC(=O)[C@H](CC(C)C)NC1=O)C(=O)N[C@@H]([C@@H](C)CC)C(=O)N1CCC[C@H]1C(=O)N[C@@H](CC(=O)O)C(=O)N[C@@H](CC(N)=O)C(=O)N[C@@H](CC(=O)O)C(=O)N[C@@H](CCCCN)C(=O)N3)NC(=O)[C@H](C(C)C)NC(=O)[C@H](CC(C)C)NC(=O)[C@H](CC(N)=O)NC(=O)[C@@H]1CCCN1C(=O)[C@H](CCCNC(=N)N)NC2=O [SEQ ID NO: 189] (H-ICLGFMRKCIPDNDKCCRPNLVCSRTHKWCKYVF-NH2; disulfide 2-17, 9-23, 16-30)	70	8.15	100			
CC[C@H](C)[C@@H]1NC(=O)[C@@H]2CSSC[C@@H]3NC(=O)[C@H](C(C)C)NC(=O)[C@H](CC(C)C)NC(=O)[C@H](CC(N)=O)NC(=O)[C@@H]4CCCN4C(=O)[C@H](CCCNC(=N)N)NC(=O)[C@H](CSSC[C@H](NC(=O)[C@@H]4CCCN4)C(=O)N[C@@H](CC(C)C)C(=O)NCC(=O)N[C@@H](Cc4ccccc4)C(=O)N[C@@H](CCSC)C(=O)N[C@@H](CCCNC(=N)N)C(=O)N[C@@H](CCCCN)C(=O)N2)NC(=O)[C@H](CSSC[C@@H](C(=O)N[C@@H](CCCCN)C(=O)N[C@@H](Cc2ccc(O)cc2)C(=O)N[C@H](C(=O)N[C@@H](Cc2ccccc2)C(N)=O)C(C)C)NC(=O)[C@H](Cc2c[nH]c4ccccc24)NC(=O)[C@H](CCCCN)NC(=O)[C@H](Cc2c[nH]cn2)NC(=O)[C@H]([C@@H](C)O)NC(=O)[C@H](CCCNC(=N)N)NC(=O)[C@H](CO)NC3=O)NC(=O)[C@H](CCCCN)NC(=O)[C@H](CC(=O)O)NC(=O)[C@H](CC(N)=O)NC(=O)[C@H](CC(=O)O)NC(=O)[C@@H]2CCCN2C1=O [SEQ ID NO: 190] (H-PCLGFMRKCIPDNDKCCRPNLVCSRTHKWCKYVF-NH2; disulfide 2-17, 9-23, 16-30)	40	9.73	90			
CC[C@H](C)[C@@H]1NC(=O)[C@@H]2CSSC[C@@H]3NC(=O)[C@H](C(C)C)NC(=O)[C@H](CC(C)C)NC(=O)[C@H](CC(N)=O)NC(=O)[C@@H]4CCCN4C(=O)[C@H](CCCNC(=N)N)NC(=O)[C@H](CSSC[C@H](NC(=O)[C@@H](N)CO)C(=O)N[C@@H](CC(C)C)C(=O)NCC(=O)N[C@@H](Cc4ccccc4)C(=O)N[C@@H](CCSC)C(=O)N[C@@H](CCCNC(=N)N)C(=O)N[C@@H](CCCCN)C(=O)N2)NC(=O)[C@H](CSSC[C@@H](C(=O)N[C@@H](CCCCN)C(=O)N[C@@H](Cc2ccc(O)cc2)C(=O)N[C@H](C(=O)N[C@@H](Cc2ccccc2)C(N)=O)C(C)C)NC(=O)[C@H](Cc2c[nH]c4ccccc24)NC(=O)[C@H](CCCCN)NC(=O)[C@H](Cc2c[nH]cn2)NC(=O)[C@H]([C@@H](C)O)NC(=O)[C@H](CCCNC(=N)N)NC(=O)[C@H](CO)NC3=O)NC(=O)[C@H](CCCCN)NC(=O)[C@H](CC(=O)O)NC(=O)[C@H](CC(N)=O)NC(=O)[C@H](CC(=O)O)NC(=O)[C@@H]2CCCN2C1=O [SEQ ID NO: 191] (H-SCLGFMRKCIPDNDKCCRPNLVCSRTHKWCKYVF-NH2; disulfide 2-17, 9-23, 16-30)	50	9.4	70			
CC[C@H](C)[C@@H]1NC(=O)[C@@H]2CSSC[C@@H]3NC(=O)[C@H](C(C)C)NC(=O)[C@H](CC(C)C)NC(=O)[C@H](CC(N)=O)NC(=O)[C@@H]4CCCN4C(=O)[C@H](CCCNC(=N)N)NC(=O)[C@H](CSSC[C@H](NC(=O)[C@@H](N)[C@@H](C)O)C(=O)N[C@@H](CC(C)C)C(=O)NCC(=O)N[C@@H](Cc4ccccc4)C(=O)N[C@@H](CCSC)C(=O)N[C@@H](CCCNC(=N)N)C(=O)N[C@@H](CCCCN)C(=O)N2)NC(=O)[C@H](CSSC[C@@H](C(=O)N[C@@H](CCCCN)C(=O)N[C@@H](Cc2ccc(O)cc2)C(=O)N[C@H](C(=O)N[C@@H](Cc2ccccc2)C(N)=O)C(C)C)NC(=O)[C@H](Cc2c[nH]c4ccccc24)NC(=O)[C@H](CCCCN)NC(=O)[C@H](Cc2c[nH]cn2)NC(=O)[C@H]([C@@H](C)O)NC(=O)[C@H](CCCNC(=N)N)NC(=O)[C@H](CO)NC3=O)NC(=O)[C@H](CCCCN)NC(=O)[C@H](CC(=O)O)NC(=O)[C@H](CC(N)=O)NC(=O)[C@H](CC(=O)O)NC(=O)[C@@H]2CCCN2C1=O [SEQ ID NO: 192] (H-TCLGFMRKCIPDNDKCCRPNLVCSRTHKWCKYVF-NH2; disulfide 2-17, 9-23, 16-30)	70	9.21	110			
CC[C@H](C)[C@@H]1NC(=O)[C@@H]2CSSC[C@@H]3NC(=O)[C@H](C(C)C)NC(=O)[C@H](CC(C)C)NC(=O)[C@H](CC(N)=O)NC(=O)[C@@H]4CCCN4C(=O)[C@H](CCCNC(=N)N)NC(=O)[C@H](CSSC[C@H](NC(=O)[C@@H](N)CC(=O)O)C(=O)N[C@@H](CC(C)C)C(=O)NCC(=O)N[C@@H](C)C(=O)N[C@@H](Cc4ccccc4)C(=O)N[C@@H](CCCNC(=N)N)C(=O)N[C@@H](CCCCN)C(=O)N2)NC(=O)[C@H](CSSC[C@@H](C(=O)N[C@@H](CCCCN)C(=O)N[C@@H](Cc2ccc(O)cc2)C(=O)N[C@H](C(=O)N[C@@H](Cc2ccccc2)C(N)=O)C(C)C)NC(=O)[C@H](Cc2c[nH]c4ccccc24)NC(=O)[C@H](CCCNC(=N)N)NC(=O)[C@H](Cc2cnc[nH]2)NC(=O)[C@H](CC(C)C)NC(=O)[C@H](CCCNC(=N)N)NC(=O)[C@H](CO)NC3=O)NC(=O)[C@H](CCCCN)NC(=O)[C@H](CC(=O)O)NC(=O)[C@H](CC(N)=O)NC(=O)[C@H](CC(=O)O)NC(=O)[C@@H]2CCCN2C1=O [SEQ ID NO: 262, [Ala5,Phe6,Leu26,Arg28]GpTx-1] (H-DCLGAFRKCIPDNDKCCRPNLVCSRLHRWCKYVF-NH2; disulfide 2-17, 9-23, 16-30)				40	5	50
CC[C@H](C)[C@@H]1NC(=O)[C@@H]2CSSC[C@@H]3NC(=O)[C@H](C(C)C)NC(=O)[C@H](CC(C)C)NC(=O)[C@H](CC(N)=O)NC(=O)[C@@H]4CCCN4C(=O)[C@H](CCCNC(=N)N)NC(=O)[C@H](CSSC[C@H](NC(=O)[C@@H](N)CC(=O)O)C(=O)N[C@@H](CC(C)C)C(=O)NCC(=O)N[C@@H](Cc4cn(C)c5ccccc45)C(=O)N[C@@H](CCSC)C(=O)N[C@@H](CCCNC(=N)N)C(=O)N[C@@H](CCCCN)C(=O)N2)NC(=O)[C@H](CSSC[C@@H](C(=O)N[C@@H](CCCCN)C(=O)N[C@@H](Cc2ccc(O)cc2)C(=O)N[C@H](C(=O)N[C@@H](Cc2ccccc2)C(N)=O)C(C)C)NC(=O)[C@H](Cc2c[nH]c4ccccc24)NC(=O)[C@H](CCCCN)NC(=O)[C@H](Cc2c[nH]cn2)NC(=O)[C@H]([C@@H](C)O)NC(=O)[C@H](CCCNC(=N)N)NC(=O)[C@H](CO)NC3=O)NC(=O)[C@H](CCCCN)NC(=O)[C@H](CC(=O)O)NC(=O)[C@H](CC(N)=O)NC(=O)[C@H](CC(=O)O)NC(=O)[C@@H]2CCCN2C1=O [SEQ ID NO: 264]	90	8.17	90			
CC[C@H](C)[C@@H]1NC(=O)[C@@H]2CSSC[C@@H]3NC(=O)[C@H](C(C)C)NC(=O)[C@H](CC(C)C)NC(=O)[C@H](CC(N)=O)NC(=O)[C@@H]4CCCN4C(=O)[C@H](CCCNC(=N)N)NC(=O)[C@H](CSSC[C@H](NC(=O)[C@@H](N)CC(=O)O)C(=O)N[C@@H](CC(C)C)C(=O)NCC(=O)NCC(=O)N[C@@H](CCSC)C(=O)N[C@@H](CCCNC(=N)N)C(=O)N[C@@H](CCCCN)C(=O)N2)NC(=O)[C@H](CSSC[C@@H](C(=O)N[C@@H](CCCCN)C(=O)N[C@@H](Cc2ccc(O)cc2)C(=O)N[C@H](C(=O)N[C@@H](Cc2ccccc2)C(N)=O)C(C)C)NC(=O)[C@H](Cc2c[nH]c4ccccc24)NC(=O)[C@H](CCCCN)NC(=O)[C@H](Cc2cnc[nH]2)NC(=O)[C@H]([C@@H](C)O)NC(=O)[C@H](CCCNC(=N)N)NC(=O)[C@H](CO)NC3=O)NC(=O)[C@H](CCCCN)NC(=O)[C@H](CC(=O)O)NC(=O)[C@H](CC(N)=O)NC(=O)[C@H](CC(=O)O)NC(=O)[C@@H]2CCCN2C1=O [SEQ ID NO: 265] (H-DCLGGMRKCIPDNDKCCRPNLVCSRTHKWCKYVF-NH2; disulfide 2-17, 9-23, 16-30)	1240	7.47	750			
CC[C@H](C)[C@@H]1NC(=O)[C@@H]2CSSC[C@@H]3NC(=O)[C@H](C(C)C)NC(=O)[C@H](CC(C)C)NC(=O)[C@H](CC(N)=O)NC(=O)[C@@H]4CCCN4C(=O)[C@H](CCCNC(=N)N)NC(=O)[C@H](CSSC[C@H](NC(=O)[C@@H](N)CC(=O)O)C(=O)N[C@@H](CC(C)C)C(=O)NCC(=O)N[C@@H](Cc4c[nH]cn4)C(=O)N[C@@H](CCSC)C(=O)N[C@@H](CCCNC(=N)N)C(=O)N[C@@H](CCCCN)C(=O)N2)NC(=O)[C@H](CSSC[C@@H](C(=O)N[C@@H](CCCCN)C(=O)N[C@@H](Cc2ccc(O)cc2)C(=O)N[C@H](C(=O)N[C@@H](Cc2ccccc2)C(N)=O)C(C)C)NC(=O)[C@H](Cc2c[nH]c4ccccc24)NC(=O)[C@H](CCCCN)NC(=O)[C@H](Cc2c[nH]cn2)NC(=O)[C@H]([C@@H](C)O)NC(=O)[C@H](CCCNC(=N)N)NC(=O)[C@H](CO)NC3=O)NC(=O)[C@H](CCCCN)NC(=O)[C@H](CC(=O)O)NC(=O)[C@H](CC(N)=O)NC(=O)[C@H](CC(=O)O)NC(=O)[C@@H]2CCCN2C1=O [SEQ ID NO: 266] (H-DCLGHMRKCIPDNDKCCRPNLVCSRTHKWCKYVF-NH2; disulfide 2-17, 9-23, 16-30)	8370	6.62	4740			
